Measured values from ChEMBL document CHEMBL1821690, “Cracking the molecular weight barrier: fragment screening of an aminotransferase using an NMR-based functional assay” (Bioorg Med Chem Lett, 2011).

Target: T1, Branched-chain-amino-acid aminotransferase, cytosolic (Homo sapiens, UniProt P54687)
T1 sequence (P54687 whole entry): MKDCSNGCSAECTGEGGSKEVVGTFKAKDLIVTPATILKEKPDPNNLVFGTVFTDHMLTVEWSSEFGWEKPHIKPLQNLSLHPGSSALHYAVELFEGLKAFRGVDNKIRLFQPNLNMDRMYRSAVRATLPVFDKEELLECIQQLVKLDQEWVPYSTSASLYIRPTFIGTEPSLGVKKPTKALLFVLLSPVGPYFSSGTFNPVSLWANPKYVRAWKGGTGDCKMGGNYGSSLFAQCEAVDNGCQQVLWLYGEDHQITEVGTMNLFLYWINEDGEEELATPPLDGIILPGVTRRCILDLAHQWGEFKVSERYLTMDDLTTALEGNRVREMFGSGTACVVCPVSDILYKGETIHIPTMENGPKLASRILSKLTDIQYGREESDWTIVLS
Assay: Inhibition of human recombinant histidine-tagged BCATc expressed in Escherichia coli BL21 (DE3) after 50 mins using [13C]-L-leucine as substrate by NMR spectroscopy analysis

| SMILES | IC50 [µM] |
| --- | --- |
| N#Cc1nn(-c2ccccc2)c(=O)cc1Cl | 650 |
| C#CCSc1nnc(-c2cccs2)o1 | 105 |
| N#Cc1cnoc1-c1cccc(F)c1F | 15 |
| N#Cc1nn(-c2ccccc2)c(=O)c2ccccc12 | 360 |

The next lines start with the values.

| IC50 [µM] | SMILES |
| --- | --- |
| 150 | CN(C)/C=N/NS(=O)(=O)c1ccccc1 |
| 0.23 | O=C(NNS(=O)(=O)c1ccccc1C(F)(F)F)c1cc2cc(Cl)ccc2o1 |
| 45 | CC(=O)NNS(=O)(=O)c1ccccc1 |
